This is an account of results in patent US10800791B2, “Triazole ACC inhibitors and uses thereof” (Gilead Apollo, LLC, priority 2015, dated 2020).

One assay addresses human (hACC2) (Homo sapiens, UniProt O00763). Kind of assay: In vitro ACC inhibition assay (ADP-Glo), hACC2. Type of assay: biochemical. The settings on record: 5 nM ACC2, 20 μM ATP, 20 μM acetyl-CoA. How it is done: The detailed procedure is as follows. […] 10 μL ADP glo reagent was added. […] 20 μL kinase detection reagent was added.
The test system of assay [1] is Phytophthora capsici (Pc). Kind of assay: Growth inhibition assay of fungal pathogens, Pc. Type of assay: cell-based. Conditions: 48 h. In outline:
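Inhibition percentages reflect 48 h OD600 and visual scores relative to a 2% DMSO control. Test concentrations were 50, 10, 2 ppm or 2, 0.4, 0.08 ppm final, applied to spores in 17% V8 medium.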

[2] abbreviates: growth inhibition at 48 hours vs 2% DMSO control, read-out: Concentration at 90% Inhibition Pc.
[3] abbreviates: growth inhibition vs 2% DMSO control at 48 hours, read-out: Concentration at 90% Inhibition Pc.
The mark [4] stands for this setting: read-out: Concentration at 90% Inhibition Pc, Phytophthora capsici, growth inhibition at 48 hours vs 2% DMSO control.
[5] abbreviates: read-out: Concentration at 90% Inhibition Pc, Phytophthora capsici, growth inhibition vs 2% DMSO control at 48 hours.

≈ marks a conversion by molar mass, not a printed value. Where two headings read alike, the source gives them in different places.

human (hACC2), sequence (O00763 whole entry): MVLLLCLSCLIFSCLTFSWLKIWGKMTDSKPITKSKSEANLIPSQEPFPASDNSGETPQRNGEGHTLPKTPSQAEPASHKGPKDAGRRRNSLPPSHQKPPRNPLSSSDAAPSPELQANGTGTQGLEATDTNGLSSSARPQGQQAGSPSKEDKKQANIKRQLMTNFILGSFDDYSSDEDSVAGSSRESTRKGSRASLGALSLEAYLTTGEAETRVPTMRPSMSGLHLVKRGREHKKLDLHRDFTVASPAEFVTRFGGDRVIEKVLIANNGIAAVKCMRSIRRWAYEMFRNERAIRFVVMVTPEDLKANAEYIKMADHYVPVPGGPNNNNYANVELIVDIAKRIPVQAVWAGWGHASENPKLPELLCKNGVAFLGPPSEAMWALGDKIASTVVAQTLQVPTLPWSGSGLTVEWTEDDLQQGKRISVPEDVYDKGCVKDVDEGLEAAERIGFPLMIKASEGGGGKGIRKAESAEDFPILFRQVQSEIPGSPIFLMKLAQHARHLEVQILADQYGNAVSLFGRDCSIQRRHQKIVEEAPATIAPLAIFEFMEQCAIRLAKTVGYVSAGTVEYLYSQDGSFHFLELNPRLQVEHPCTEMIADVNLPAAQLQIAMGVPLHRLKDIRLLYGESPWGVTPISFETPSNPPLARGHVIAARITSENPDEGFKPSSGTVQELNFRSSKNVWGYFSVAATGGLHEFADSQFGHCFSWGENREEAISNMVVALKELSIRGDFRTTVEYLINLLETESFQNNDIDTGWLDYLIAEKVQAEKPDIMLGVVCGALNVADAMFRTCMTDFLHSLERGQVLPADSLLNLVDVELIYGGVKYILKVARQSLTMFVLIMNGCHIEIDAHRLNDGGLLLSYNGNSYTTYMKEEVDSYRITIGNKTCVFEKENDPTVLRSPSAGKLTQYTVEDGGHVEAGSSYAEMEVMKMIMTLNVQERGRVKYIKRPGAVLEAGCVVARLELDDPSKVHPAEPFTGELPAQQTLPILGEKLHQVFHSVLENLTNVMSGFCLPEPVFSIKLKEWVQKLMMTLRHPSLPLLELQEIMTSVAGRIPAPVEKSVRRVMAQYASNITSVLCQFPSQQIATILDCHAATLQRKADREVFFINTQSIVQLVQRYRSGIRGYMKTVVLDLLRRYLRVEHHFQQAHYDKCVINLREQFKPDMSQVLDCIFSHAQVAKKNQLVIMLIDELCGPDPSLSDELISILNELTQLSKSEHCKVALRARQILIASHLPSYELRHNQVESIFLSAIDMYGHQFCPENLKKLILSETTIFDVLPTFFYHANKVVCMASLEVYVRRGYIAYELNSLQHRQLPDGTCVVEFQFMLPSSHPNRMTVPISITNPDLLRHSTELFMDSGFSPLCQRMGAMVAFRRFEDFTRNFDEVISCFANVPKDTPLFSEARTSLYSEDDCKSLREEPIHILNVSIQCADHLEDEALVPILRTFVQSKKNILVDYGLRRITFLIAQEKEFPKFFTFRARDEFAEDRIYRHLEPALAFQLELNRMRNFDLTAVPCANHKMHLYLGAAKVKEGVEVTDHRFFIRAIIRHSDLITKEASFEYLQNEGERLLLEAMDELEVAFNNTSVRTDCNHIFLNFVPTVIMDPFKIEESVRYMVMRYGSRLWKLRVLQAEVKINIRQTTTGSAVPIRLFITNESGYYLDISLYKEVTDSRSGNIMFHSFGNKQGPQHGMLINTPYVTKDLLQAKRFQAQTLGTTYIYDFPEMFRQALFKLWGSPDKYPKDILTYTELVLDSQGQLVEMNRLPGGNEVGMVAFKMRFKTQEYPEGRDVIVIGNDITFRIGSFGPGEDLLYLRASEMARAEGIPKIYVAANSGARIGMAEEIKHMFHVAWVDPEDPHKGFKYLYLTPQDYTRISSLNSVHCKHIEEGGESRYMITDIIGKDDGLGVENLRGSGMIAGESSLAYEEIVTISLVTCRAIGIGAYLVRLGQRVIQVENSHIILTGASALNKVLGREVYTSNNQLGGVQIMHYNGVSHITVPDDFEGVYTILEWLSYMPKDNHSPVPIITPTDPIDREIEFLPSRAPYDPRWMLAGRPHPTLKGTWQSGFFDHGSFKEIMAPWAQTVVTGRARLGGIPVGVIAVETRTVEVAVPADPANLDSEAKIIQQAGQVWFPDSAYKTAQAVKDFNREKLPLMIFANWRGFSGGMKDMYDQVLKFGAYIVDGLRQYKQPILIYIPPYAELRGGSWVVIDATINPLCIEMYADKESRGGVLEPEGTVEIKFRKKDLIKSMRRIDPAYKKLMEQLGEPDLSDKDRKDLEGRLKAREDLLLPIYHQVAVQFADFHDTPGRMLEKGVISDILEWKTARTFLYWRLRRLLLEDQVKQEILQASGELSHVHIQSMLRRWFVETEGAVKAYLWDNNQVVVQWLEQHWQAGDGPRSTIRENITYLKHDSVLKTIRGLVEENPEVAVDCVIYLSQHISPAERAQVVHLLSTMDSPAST

In general, IC50 refers to the concentration that gives 50% inhibition. A lower IC50 goes with greater potency in that assay. Turning to `COc1ccc(F)cc1[C@H](Cn1c(=O)n(C(C)(C)C(N)=O)c(=O)c2c(C)c(-n3nccn3)sc21)OCC(C)C` [Compound I-8, (R)-2-(1-(2-(5-fluoro-2-methoxyphenyl)-2-isobutoxyethyl)-5-methyl-2,4-dioxo-6-(2H-1,2,3-triazol-2-yl)-1,4-dihydrothieno[2,3-d]pyrimidin-3(2H)-yl)-2-methylpropanamide], the IC50 against human (hACC2) (Table 2a) fell in the range of 0.005 to 0.01 µM; against human (hACC2) (Table 2b, additional results) it was 0.005 to 0.01 µM. Besides, the IC90 in assay [1] (setting [2]) and in assay [1] (setting [3]) was greater than 50 µg/mL in each case.
Consider `CCNC(=O)C(C)(C)n1c(=O)c2c(C)c(-n3nccn3)sc2n(C[C@H](OCC(C)C)c2cc(F)ccc2OC)c1=O` [Compound I-9, (R)—N-ethyl-2-(1-(2-(5-fluoro-2-methoxyphenyl)-2-isobutoxyethyl)-5-methyl-2,4-dioxo-6-(2H-1,2,3-triazol-2-yl)-1,4-dihydrothieno[2,3-d]pyrimidin-3(2H)-yl)-2-methylpropanamide], for which the IC50 on human (hACC2) (Table 2a) is 0.005 to 0.01 µM; against human (hACC2) (Table 2b, additional results) it was 0.001 to 0.005 µM. The IC90 in assay [1] (setting [2]) and in assay [1] (setting [3]) was greater than 50 µg/mL throughout.
As to `COc1ccc(F)cc1[C@H](Cn1c(=O)n(C(C)(C)C(=O)N2CCCCC2)c(=O)c2c(C)c(-n3nccn3)sc21)OCC(C)C` [Compound I-11, (R)-1-(2-(5-fluoro-2-methoxyphenyl)-2-isobutoxyethyl)-5-methyl-3-(2-methyl-1-oxo-1-(piperidin-1-yl)propan-2-yl)-6-(2H-1,2,3-triazol-2-yl)thieno[2,3-d]pyrimidine-2,4(1H,3H)-dione], the concentration for half-maximal inhibition (IC50) fell in the range of 0.01 to 0.04 µM against human (hACC2) (Table 2a) and 0.01 to 0.04 µM against human (hACC2) (Table 2b, additional results). In addition, the IC90 in assay [1] (setting [4]) and in assay [1] (setting [5]) was greater than 50 µg/mL in each case.
In the case of `COc1ccc(F)cc1[C@H](Cn1c(=O)n(C(C)(C)C(=O)N2CCCC2)c(=O)c2c(C)c(-n3nccn3)sc21)OCC(C)C` [Compound I-12, (R)-1-(2-(5-fluoro-2-methoxyphenyl)-2-isobutoxyethyl)-5-methyl-3-(2-methyl-1-oxo-1-(pyrrolidin-1-yl)propan-2-yl)-6-(2H-1,2,3-triazol-2-yl)thieno[2,3-d]pyrimidine-2,4(1H,3H)-dione], the half-inhibitory concentration (IC50) lay in the range of 0.01 to 0.04 µM at human (hACC2) (Table 2a) and 0.01 to 0.04 µM at human (hACC2) (Table 2b, additional results). Also, the IC90 in assay [1] (setting [2]) and in assay [1] (setting [3]) was greater than 50 µg/mL throughout.
Turning to `COc1ccccc1[C@H](Cn1c(=O)n(C(C)(C)C(N)=O)c(=O)c2c(C)c(-n3nccn3)sc21)OC1CCOCC1` [Compound I-14, (R)-2-(1-(2-(2-methoxyphenyl)-2-((tetrahydro-2H-pyran-4-yl)oxy)ethyl)-5-methyl-2,4-dioxo-6-(2H-1,2,3-triazol-2-yl)-1,4-dihydrothieno[2,3-d]pyrimidin-3(2H)-yl)-2-methylpropanamide], the IC50 against human (hACC2) (Table 2a) lay within 0.001 to 0.005 µM; against human (hACC2) (Table 2b, additional results), 0.001 to 0.005 µM. For the same compound, the IC90 in assay [1] (setting [2]) and in assay [1] (setting [3]) was greater than 50 µg/mL each time.
Turning to `CCNC(=O)C(C)(C)n1c(=O)c2c(C)c(-n3nccn3)sc2n(C[C@H](OC2CCOCC2)c2ccccc2OC)c1=O` [Compound I-15, (R)—N-ethyl-2-(1-(2-(2-methoxyphenyl)-2-((tetrahydro-2H-pyran-4-yl)oxy)ethyl)-5-methyl-2,4-dioxo-6-(2H-1,2,3-triazol-2-yl)-1,4-dihydro-thieno[2,3-d]pyrimidin-3(2H)-yl)-2-methylpropanamide], the IC50 against human (hACC2) (Table 2a) fell in the range of 0.001 to 0.005 µM; on human (hACC2) (Table 2b, additional results), 0.001 to 0.005 µM. Also, the IC90 in assay [1] (setting [2]) and in assay [1] (setting [3]) was greater than 50 µg/mL each time.
For `COc1ccccc1[C@H](Cn1c(=O)n(C(C)(C)C(=O)N2CC(O)C2)c(=O)c2c(C)c(-n3nccn3)sc21)OC1CCOCC1` [Compound I-19, (R)-3-(1-(3-hydroxyazetidin-1-yl)-2-methyl-1-oxopropan-2-yl)-1-(2-(2-methoxyphenyl)-2-((tetrahydro-2H-pyran-4-yl)oxy)ethyl)-5-methyl-6-(2H-1,2,3-triazol-2-yl)thieno[2,3-d]pyrimidine-2,4(1H,3H)-dione], the IC50 is 0.01 to 0.04 µM at human (hACC2) (Table 2a) and 0.01 to 0.04 µM at human (hACC2) (Table 2b, additional results). For the same compound, the IC90 in assay [1] (setting [4]) and in assay [1] (setting [5]) was greater than 50 µg/mL throughout.
For the compound `COc1ccc(F)cc1[C@H](Cn1c(=O)n(C(C)(C)C(=O)N2CCCCC2)c(=O)c2c(C)c(-n3nccn3)sc21)OC1CCOCC1` [Compound I-24, (R)-1-(2-(5-fluoro-2-methoxyphenyl)-2-((tetrahydro-2H-pyran-4-yl)oxy)ethyl)-5-methyl-3-(2-methyl-1-oxo-1-(piperidin-1-yl)propan-2-yl)-6-(2H-1,2,3-triazol-2-yl)thieno[2,3-d]pyrimidine-2,4(1H,3H)-dione], the IC50 is 0.01 to 0.04 µM on human (hACC2) (Table 2a) and 0.01 to 0.04 µM on human (hACC2) (Table 2b, additional results). In addition, the IC90 in assay [1] (setting [4]) and in assay [1] (setting [5]) was greater than 50 µg/mL in each case.
Take `COc1ccc(F)cc1[C@H](Cn1c(=O)n(C(C)(C)C(=O)N2CC(O)C2)c(=O)c2c(C)c(-n3nccn3)sc21)OC1CCOCC1` [Compound I-26, (R)-1-(2-(5-fluoro-2-methoxyphenyl)-2-((tetrahydro-2H-pyran-4-yl)oxy)ethyl)-3-(1-(3-hydroxyazetidin-1-yl)-2-methyl-1-oxopropan-2-yl)-5-methyl-6-(2H-1,2,3-triazol-2-yl)thieno[2,3-d]pyrimidine-2,4(1H,3H)-dione]: the IC50 was 0.01 to 0.04 µM on human (hACC2) (Table 2a) and 0.01 to 0.04 µM at human (hACC2) (Table 2b, additional results). Besides, the IC90 in assay [1] (setting [2]) and in assay [1] (setting [3]) was greater than 50 µg/mL throughout.
With `COc1ccc(F)cc1[C@H](Cn1c(=O)n(C(C)(C)C(=O)NC2CCC2)c(=O)c2c(C)c(-n3nccn3)sc21)OC1CCOCC1` [Compound I-27, (R)—N-cyclobutyl-2-(1-(2-(5-fluoro-2-methoxyphenyl)-2-((tetrahydro-2H-pyran-4-yl)oxy)ethyl)-5-methyl-2,4-dioxo-6-(2H-1,2,3-triazol-2-yl)-1,4-dihydrothieno[2,3-d]pyrimidin-3(2H)-yl)-2-methylpropanamide], the IC50 against human (hACC2) (Table 2a) fell in the range of 0.005 to 0.01 µM; at human (hACC2) (Table 2b, additional results) it was 0.005 to 0.01 µM. Moreover, the IC90 in assay [1] (setting [2]) is 10 µg/mL (≈ 15.6 µM); in assay [1] (setting [3]), greater than 50 µg/mL.
Regarding `COc1ccc(F)cc1[C@H](Cn1c(=O)n(C(C)(C)C(=O)NC2CCCCC2)c(=O)c2c(C)c(-n3nccn3)sc21)OC1CCOCC1` [Compound I-28, (R)—N-cyclohexyl-2-(1-(2-(5-fluoro-2-methoxyphenyl)-2-((tetrahydro-2H-pyran-4-yl)oxy)ethyl)-5-methyl-2,4-dioxo-6-(2H-1,2,3-triazol-2-yl)-1,4-dihydrothieno[2,3-d]pyrimidin-3(2H)-yl)-2-methylpropanamide], the half-inhibitory concentration (IC50) against human (hACC2) (Table 2a) is 0.01 to 0.04 µM; at human (hACC2) (Table 2b, additional results), 0.01 to 0.04 µM. Besides, the IC90 in assay [1] (setting [4]) and in assay [1] (setting [5]) was greater than 50 µg/mL throughout.
As for `COc1ccc(F)cc1[C@H](Cn1c(=O)n(C(C)(C)C(=O)NCC(C)C)c(=O)c2c(C)c(-n3nccn3)sc21)OC1CCOCC1` [Compound I-29, (R)-2-(1-(2-(5-fluoro-2-methoxyphenyl)-2-((tetrahydro-2H-pyran-4-yl)oxy)ethyl)-5-methyl-2,4-dioxo-6-(2H-1,2,3-triazol-2-yl)-1,4-dihydro-thieno[2,3-d]pyrimidin-3(2H)-yl)-N-isobutyl-2-methylpropanamide], the half-maximal inhibitory concentration (IC50) is 0.005 to 0.01 µM against human (hACC2) (Table 2a) and 0.005 to 0.01 µM on human (hACC2) (Table 2b, additional results). In addition, the IC90 in assay [1] (setting [2]) and in assay [1] (setting [3]) was greater than 50 µg/mL throughout.
Consider `COc1ccc(F)cc1[C@H](Cn1c(=O)n(C(C)(C)C(N)=O)c(=O)c2c(C)c(-n3nccn3)sc21)OC1CCC(=O)CC1` [Compound I-31, (R)-2-(1-(2-(5-fluoro-2-methoxyphenyl)-2-((4-oxocyclo-hexyl)oxy)ethyl)-5-methyl-2,4-dioxo-6-(2H-1,2,3-triazol-2-yl)-1,4-dihydrothieno[2,3-d]pyrimidin-3(2H)-yl)-2-methylpropanamide], for which the IC50 was 0.005 to 0.01 µM against human (hACC2) (Table 2a) and 0.005 to 0.01 µM against human (hACC2) (Table 2b, additional results). Moreover, the IC90 in assay [1] (setting [2]) and in assay [1] (setting [3]) was greater than 50 µg/mL throughout.
For `COc1ccc(F)cc1[C@H](Cn1c(=O)n(C(C)(C)C(=O)NC(C)C)c(=O)c2c(C)c(-n3nccn3)sc21)OC1CCC(=O)CC1` [Compound I-32, (R)-2-(1-(2-(5-fluoro-2-methoxyphenyl)-2-((4-oxocyclo-hexyl)oxy)ethyl)-5-methyl-2,4-dioxo-6-(2H-1,2,3-triazol-2-yl)-1,4-dihydro-thieno[2,3-d]pyrimidin-3(2H)-yl)-N-isopropyl-2-methylpropanamide], the IC50 at human (hACC2) (Table 2a) is 0.005 to 0.01 µM; on human (hACC2) (Table 2b, additional results), 0.005 to 0.01 µM. The IC90 in assay [1] (setting [4]) and in assay [1] (setting [5]) was greater than 50 µg/mL throughout.
In the case of `COc1ccc(F)cc1[C@H](Cn1c(=O)n(C(C)(C)C(=O)N2CCCC2)c(=O)c2c(C)c(-n3nccn3)sc21)OC1CCC(=O)CC1` [Compound I-33, (R)-1-(2-(5-fluoro-2-methoxyphenyl)-2-((4-oxocyclo-hexyl)oxy)ethyl)-5-methyl-3-(2-methyl-1-oxo-1-(pyrrolidin-1-yl)propan-2-yl)-6-(2H-1,2,3-triazol-2-yl)thieno[2,3-d]pyrimidine-2,4(1H,3H)-dione], the IC50 is 0.01 to 0.04 µM against human (hACC2) (Table 2a) and 0.01 to 0.04 µM against human (hACC2) (Table 2b, additional results). For the same compound, the IC90 in assay [1] (setting [2]) and in assay [1] (setting [3]) was greater than 50 µg/mL each time.
`COc1ccc(F)cc1[C@H](Cn1c(=O)n(C(C)(C)C(=O)N2CCCCC2)c(=O)c2c(C)c(-n3nccn3)sc21)OC1CCC(=O)CC1` [Compound I-34, (R)-1-(2-(5-fluoro-2-methoxyphenyl)-2-((4-oxocyclohexyl)oxy)ethyl)-5-methyl-3-(2-methyl-1-oxo-1-(piperidin-1-yl)propan-2-yl)-6-(2H-1,2,3-triazol-2-yl)thieno[2,3-d]pyrimidine-2,4(1H,3H)-dione]: the IC50 was 0.005 to 0.01 µM against human (hACC2) (Table 2a) and 0.005 to 0.01 µM at human (hACC2) (Table 2b, additional results). Further, the IC90 in assay [1] (setting [4]) and in assay [1] (setting [5]) was greater than 50 µg/mL in each case.
